Measurements reported in ChEMBL document CHEMBL6114941, “Recent progress on small molecule TLR4 antagonist against triple-negative breast cancer progression and complications” (2024).

Tests used:
Format in all cases: functional
Ehrlich = assay: Antitumor activity against mouse Ehrlich cells implanted in BALB/c nude mouse assessed as increase in apoptotic cell death at 5 mg/kg, ip administered once daily for 7 days relative to control; conditions: time 7 day
MDA-MB-435 [1] = assay: Antiproliferative activity against human MDA-MB-435 cells assessed as inhibition of cell growth at 10 uM in presence of paclitaxel relative to control
MDA-MB-435 [2] = assay: Antiproliferative activity against human MDA-MB-435 cells assessed as inhibition of cell growth at 1 nM relative to control

COc1cc(/C=C/C(=O)/C=C/c2ccc(O)c(OC)c2)ccc1[O-].[Na+]
Activity (Ehrlich): 30%

CCc1ccc(/C=C/C(=O)/C=C(O)/C=C/c2ccc(OC)c(O)c2OC)c(CC)c1O
inhibition at 10 µM (MDA-MB-435 [1]): 45%

CC(=O)O[C@H]1C(=O)[C@@]2(C)[C@H]([C@H](OC(=O)c3ccccc3)[C@]3(O)C[C@H](OC(=O)[C@H](O)[C@@H](NC(=O)c4ccccc4)c4ccccc4)C(C)=C1C3(C)C)[C@]1(OC(C)=O)CO[C@@H]1C[C@@H]2O [PACLITAXEL]
inhibition at 0.001 µM (MDA-MB-435 [2]): 97%
